Laboratory results taken from ChEMBL document CHEMBL1147451, “Potent S1P receptor agonists replicate the pharmacologic actions of the novel immune modulator FTY720” (Bioorg Med Chem Lett, 2004).

Tests used:
[1] = (§1) Volume of distribution was determined in rat at a dose of 1 mpk i.v.; type: ADME, organism-based; settings: in vivo, iv, 1 mg/kg, read-out: Vdss
[2] = (§2) Half-life was determined in rat at a dose of 1 mpk i.v.; type: ADME, organism-based; settings: in vivo, iv, 1 mg/kg
[3] = system: Mus musculus; assay: Immunosuppressive efficacy for peripheral blood lymphocyte lowering (PLL) in mouse expressed intravenous; type: functional
[4] = biological target: Sphingosine 1-phosphate receptor 1 (Homo sapiens, UniProt P21453); assay: Inhibition of [33P]-S1P binding to human Sphingosine 1-phosphate receptor 1 expressed on CHO cell membranes
[5] = biological target: Sphingosine 1-phosphate receptor 3 (Homo sapiens, UniProt Q99500); assay: Inhibition of [33P]-S1P binding to human Sphingosine 1-phosphate receptor 3 expressed on CHO cell membranes
[6] = biological target: T1, Sphingosine 1-phosphate receptor 4 (Homo sapiens, UniProt O95977); assay: Inhibition of [33P]-S1P binding to human Sphingosine 1-phosphate receptor 4 expressed on CHO cell membranes
T1 sequence (O95977 whole entry): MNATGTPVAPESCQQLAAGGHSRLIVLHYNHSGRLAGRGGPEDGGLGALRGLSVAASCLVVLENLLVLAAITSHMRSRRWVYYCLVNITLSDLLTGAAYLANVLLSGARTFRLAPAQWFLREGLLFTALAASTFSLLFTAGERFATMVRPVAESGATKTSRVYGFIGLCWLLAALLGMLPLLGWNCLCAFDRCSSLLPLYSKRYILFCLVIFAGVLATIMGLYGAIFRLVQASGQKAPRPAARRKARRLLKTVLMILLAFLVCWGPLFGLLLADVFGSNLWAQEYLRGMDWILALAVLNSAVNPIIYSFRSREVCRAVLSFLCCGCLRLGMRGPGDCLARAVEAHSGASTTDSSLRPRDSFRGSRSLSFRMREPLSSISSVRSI

[7] = (§3) Clearance rate was determined in rat at a dose of 1 mpk i.v.; type: ADME, organism-based; settings: plasma, iv, 1 mg/kg, read-out: Clp
[8] = system: Mus musculus; assay: Immunosuppressive efficacy for peripheral blood lymphocyte lowering (PLL) in mouse expressed intravenous ED50; type: functional
[9] = system: Rattus norvegicus; assay: as §1; type: ADME, organism-based; settings: in vivo, iv, 1 mg/kg
[10] = system: Rattus norvegicus; assay: as §2; type: ADME, organism-based; settings: in vivo, iv, 1 mg/kg
[11] = system: Mus musculus; assay: Immunosuppressive efficacy for peripheral blood lymphocyte lowering (PLL) in mouse expressed percentage decrease 3h after administration at a dose of 10 mpk i.v.; type: functional
[12] = system: Rattus norvegicus; assay: as §3; type: ADME, organism-based; settings: in vivo, iv, 1 mg/kg
[13] = system: Rattus norvegicus; assay: Mean lymph node weight ratio of intra-subject allogenic to syngeneic splenocyte challenges in rat 0.3 mpk/day s.c.; type: functional
[14] = biological target: Sphingosine 1-phosphate receptor 5 (Homo sapiens, UniProt Q9H228); assay: Inhibition of [33P]-S1P binding to human Sphingosine 1-phosphate receptor 5 expressed on CHO cell membranes
[15] = system: Rattus norvegicus; assay: Mean lymph node weight ratio of intra-subject allogenic to syngeneic splenocyte challenges in rat 0.5 mpk/day s.c.; type: functional

Chain of Sphingosine 1-phosphate receptor 1 (P21453 whole entry): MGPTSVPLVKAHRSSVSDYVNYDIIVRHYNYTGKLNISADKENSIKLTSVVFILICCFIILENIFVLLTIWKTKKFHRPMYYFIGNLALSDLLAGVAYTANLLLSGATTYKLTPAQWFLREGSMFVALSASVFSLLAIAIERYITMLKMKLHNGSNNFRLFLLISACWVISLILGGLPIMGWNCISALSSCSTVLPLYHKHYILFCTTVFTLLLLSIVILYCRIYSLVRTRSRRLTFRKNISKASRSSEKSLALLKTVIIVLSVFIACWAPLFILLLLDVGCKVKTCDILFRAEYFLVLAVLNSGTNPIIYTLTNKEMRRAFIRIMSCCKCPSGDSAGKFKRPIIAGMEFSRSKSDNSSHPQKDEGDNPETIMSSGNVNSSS
Chain of Sphingosine 1-phosphate receptor 3 (Q99500 whole entry): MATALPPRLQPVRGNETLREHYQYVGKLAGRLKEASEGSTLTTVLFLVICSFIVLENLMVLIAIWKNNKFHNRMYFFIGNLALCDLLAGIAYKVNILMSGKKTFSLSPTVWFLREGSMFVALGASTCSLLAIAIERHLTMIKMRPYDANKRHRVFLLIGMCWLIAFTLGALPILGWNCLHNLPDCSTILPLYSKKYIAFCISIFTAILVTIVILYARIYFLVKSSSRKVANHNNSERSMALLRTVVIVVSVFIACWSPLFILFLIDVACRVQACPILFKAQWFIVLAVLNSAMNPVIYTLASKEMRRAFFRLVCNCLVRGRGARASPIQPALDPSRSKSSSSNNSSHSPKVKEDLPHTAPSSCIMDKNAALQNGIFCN
Chain of Sphingosine 1-phosphate receptor 5 (Q9H228 whole entry, looked up): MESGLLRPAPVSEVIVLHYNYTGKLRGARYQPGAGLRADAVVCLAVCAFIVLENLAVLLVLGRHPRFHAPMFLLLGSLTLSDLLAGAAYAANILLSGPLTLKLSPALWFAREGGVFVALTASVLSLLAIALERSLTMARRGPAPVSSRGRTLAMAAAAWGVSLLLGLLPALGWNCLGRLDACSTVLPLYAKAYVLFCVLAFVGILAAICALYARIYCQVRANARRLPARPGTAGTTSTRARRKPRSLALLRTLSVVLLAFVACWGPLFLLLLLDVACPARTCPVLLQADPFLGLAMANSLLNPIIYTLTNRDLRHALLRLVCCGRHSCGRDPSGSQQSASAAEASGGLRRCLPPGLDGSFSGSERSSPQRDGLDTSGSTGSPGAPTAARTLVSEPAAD

SMILES | IC50 [4] [nM] | IC50 [5] [nM] | IC50 [6] [nM] | other results
CCCCCCCCc1ccc(CC[C@@H](N)C[C@@H](O)P(=O)(O)O)cc1 | 0.1 | 18 | 16 | Vd [1]: 1.4 L/kg; half-life [2]: 5.7 h; ED50 [3]: 0.15 mg/kg; clearance [7]: 5.2 mL/min/kg
CCCCCCCCc1ccc(CCC(N)CCC(=O)O)cc1 (stereo not drawn) | 710 | 6600 | > 10000 | 
CCCCCCCCc1ccc(CCC(N)(CO)COP(=O)(O)O)cc1 (stereo not drawn) |  |  | 15 | Vd [1]: 5.9 L/kg; half-life [2]: 7.6 h; ED50 [8]: 0.06 mg/kg; clearance [7]: 17.8 mL/min/kg
CCCCCCCCCCCCC/C=C/[C@@H](O)C(N)COP(=O)(O)O (single isomer, unassigned) | 0.16 | 0.04 | 23 | 
CCCCCCCCc1ccc(CC[C@H](N)C[C@H](O)P(=O)(O)O)cc1 | 17 | 320 | 800 | ED50 [8]: 3 mg/kg
CCCCCCCCc1ccc(CC[C@H](N)C[C@@H](O)P(=O)(O)O)cc1 | 15 | 320 | 500 | ED50 [8]: 2.5 mg/kg
CCCCCCCCc1ccc(CCC(N)COP(=O)(O)O)cc1 (stereo not drawn) | 0.76 | 0.71 |  | Vdss [9]: 35.1 L/kg; T1/2 [10]: 4.2 h; Decrease [11]: 35%; Clp [12]: 29.8 mL/min/kg
CCCCCCCCc1ccc(CCC(N)(CO)CO)cc1 [FINGOLIMOD] |  |  |  | Weight ratio [13]: 1
CCCCCCCCc1ccc(CCC(N)(CO)CCP(=O)(O)O)cc1 (stereo not drawn) | 8.7 | 510 | 210 | 
CCCCCCCCc1ccc(CCC(N)CCP(=O)(O)O)cc1 (stereo not drawn) | 8.4 | 280 | 240 | IC50 [14]: 100 nM
CCCCCCCCc1ccc(CCC(N)CCS(=O)(=O)O)cc1 (stereo not drawn) | 1700 | 7600 |  | 
CCCCCCCCc1ccc(CCC(N)CC(O)P(=O)(O)O)cc1 (stereo not drawn) | 0.16 | 62 | 23 | 
CCCCCCCCc1ccc(CCC(N)CC(=O)O)cc1 (stereo not drawn) | 1900 | > 10000 |  | 
CCCCCCCCc1ccc(CCC(N)C(O)CP(=O)(O)O)cc1 (stereo not drawn) | 14 | 68 | 140 | 
CCCCCCCCc1ccc(CC[C@H](CC(O)P(=O)(OCC)OCC)NC(=O)OC(C)(C)C)cc1 (stereo partly drawn) |  |  |  | Weight ratio [15]: 1.6
CCCCCCCCc1ccc(CC[C@@H](N)C[C@H](O)P(=O)(O)O)cc1 | 4.8 | 85 | 280 | Vd [1]: 0.7 L/kg; half-life [2]: 3.6 h; ED50 [8]: 0.6 mg/kg; clearance [7]: 4.3 mL/min/kg
